The source of these data is patent US10188634B2, “3-(3H-imidazo[4,5-C]pyridin-2-yl)-1 H-pyrazolo[4,3-B]pyridines and therapeutic uses thereof” (Samumed, LLC, priority 2015, dated 2019).

This experiment relates to primary human mesenchymal stem cells (hMSCs). Description: Induction of chondrogenesis in primary human mesenchymal stem cells (hMSCs), nodule imaging with Rhodamine B / Nile Red. To be noted: for Emax: hMSCs chondrogenesis, TGF-β3 (10 ng/mL) as positive control, read-out: Max. Activity as % TGF-β3 activity; for EC50: hMSCs, concentration required to induce 50% levels of chondrogenesis vs TGF-β3 positive control, read-out: Conc (nM) of 50% TGF-β3 activity. It is filed as cell-based. Summed up:
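Passage 3-6 hMSCs cultured 6 days at 37° C in incomplete chondrogenic induction medium with compound (2700-10 nM, 96-well; 5000-2.2 nM, 384-well; 0.03% DMSO), TGF-β3 10 ng/mL as positive control. Fixed nodules stained with Rhodamine B/Nile Red, imaged at 531/625 nm; nodule area normalized to DMSO wells for EC50, maximum activity and dose at maximum.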

On to `CN(C)c1cncc(-c2ccc3[nH]nc(-c4nc5c(-c6cccc(F)c6)cncc5[nH]4)c3n2)c1` [Compound 7, 5-(3-(7-(3-Fluorophenyl)-3H-imidazo[4,5-c]pyridin-2-yl)-1H-pyrazolo[4,3-b]pyridin-5-yl)-N,N-dimethylpyridin-3-amine], for which the Emax is 154% and the EC50 was 10 nM.
Take `CN(C)Cc1cncc(-c2ccc3[nH]nc(-c4nc5c(-c6cccc(F)c6)cncc5[nH]4)c3n2)c1` [Compound 13, 1-(5-(3-(7-(3-Fluorophenyl)-3H-imidazo[4,5-c]pyridin-2-yl)-1H-pyrazolo[4,3-b]pyridin-5-yl)pyridin-3-yl)-N,N-dimethylmethanamine]: the Emax is 17%.
Still for that read-out and setting: the value for `Fc1cccc(-c2cncc3[nH]c(-c4n[nH]c5ccc(-c6cncc(CN7CCC(F)(F)C7)c6)nc45)nc23)c1` [Compound 26, 5-(5-((3,3-Difluoropyrrolidin-1-yl)methyl)pyridin-3-yl)-3-(7-(3-fluorophenyl)-3H-imidazo[4,5-c]pyridin-2-yl)-1H-pyrazolo[4,3-b]pyridine] was 47%; that for `CC(C)(C)C(=O)Nc1cncc(-c2ccc3[nH]nc(-c4nc5c(-c6ccc(F)cc6)cncc5[nH]4)c3n2)c1` [Compound 36, N-(5-(3-(7-(4-Fluorophenyl)-3H-imidazo[4,5-c]pyridin-2-yl)-1H-pyrazolo[4,3-b]pyridin-5-yl)pyridin-3-yl)pivalamide] was 42%.
Still for that read-out and setting: the value for `Fc1ccc(-c2cncc3[nH]c(-c4n[nH]c5ccc(-c6cncc(CN7CCCC7)c6)nc45)nc23)cc1` [Compound 42, 3-(7-(4-Fluorophenyl)-3H-imidazo[4,5-c]pyrid-2-yl)-5-(5-(pyrrolidin-1-ylmethyl)pyridin-3-yl)-1H-pyrazolo[4,3-b]pyridine] was 15%.
As to `CC(C)Nc1cncc(-c2ccc3[nH]nc(-c4nc5c(-c6cccnc6)cncc5[nH]4)c3n2)c1` [Compound 96, N-Isopropyl-5-(3-(7-(pyridin-3-yl)-3H-imidazo[4,5-c]pyridin-2-yl)-1H-pyrazolo[4,3-b]pyridin-5-yl)pyridin-3-amine], the Emax turned out to be 65% and the EC50 turned out to be 30 nM.
On the same counts, the results for `CN(C)c1cncc(-c2ccc3[nH]nc(-c4nc5c(N6CCCCC6)cncc5[nH]4)c3n2)c1` [Compound 175, N,N-dimethyl-5-(3-(7-(piperidin-1-yl)-3H-imidazo[4,5-c]pyridin-2-yl)-1H-pyrazolo[4,3-b]pyridin-5-yl)pyridin-3-amine] are 67% and 100 nM.
As for `Cc1ccncc1-c1ccc2[nH]nc(-c3nc4c(-c5ccsc5)cncc4[nH]3)c2n1` [Compound 257, 5-(4-Methylpyridin-3-yl)-3-(7-(thiophen-3-yl)-3H-imidazo[4,5-c]pyridin-2-yl)-1H-pyrazolo[4,3-b]pyridine], the Emax was 24%.
For the molecule `CCCC(=O)Nc1cncc(-c2ccc3[nH]nc(-c4nc5c(-c6ccsc6)cncc5[nH]4)c3n2)c1` [Compound 269, N-(5-(3-(7-(Thiophen-3-yl)-3H-imidazo[4,5-c]pyridin-2-yl)-1H-pyrazolo[4,3-b]pyridin-5-yl)pyridin-3-yl)butyramide], the Emax was 58% and the EC50 amounted to 21 nM.
The corresponding values for `FC1(F)CCN(Cc2cncc(-c3ccc4[nH]nc(-c5nc6c(-c7ccsc7)cncc6[nH]5)c4n3)c2)C1` [Compound 278, 5-(5-((3,3-difluoropyrrolidin-1-yl)methyl)pyridin-3-yl)-3-(7-(thiophen-3-yl)-3H-imidazo[4,5-c]pyridin-2-yl)-1H-pyrazolo[4,3-b]pyridine] are 67% and 10 nM.
On the same counts, the results for `CC(C)Nc1cncc(-c2ccc3[nH]nc(-c4nc5c(-c6ccoc6)cncc5[nH]4)c3n2)c1` [Compound 292, 5-(3-(7-(Furan-3-yl)-3H-imidazo[4,5-c]pyridin-2-yl)-1H-pyrazolo[4,3-b]pyridin-5-yl)-N-isopropylpyridin-3-amine] are 75% and 30 nM.
The corresponding values for `CN(C)c1cncc(-c2ccc3[nH]nc(-c4nc5c(-c6cccs6)cncc5[nH]4)c3n2)c1` [Compound 315, N,N-Dimethyl-5-(3-(7-(thiophen-2-yl)-3H-imidazo[4,5-c]pyridin-2-yl)-1H-pyrazolo[4,3-b]pyridin-5-yl)pyridin-3-amine] are 66% and 10 nM.
Regarding `Cc1ccc(-c2cncc3[nH]c(-c4n[nH]c5ccc(-c6cncc(N)c6)nc45)nc23)s1` [Compound 367, 5-(3-(7-(5-Methylthiophen-2-yl)-3H-imidazo[4,5-c]pyridin-2-yl)-1H-pyrazolo[4,3-b]pyridin-5-yl)pyridin-3-amine], the Emax came to 79% and the EC50 is 30 nM.
The corresponding values for `CC(C)Nc1cncc(-c2ccc3[nH]nc(-c4nc5c(-c6cc(F)cc(NCCN(C)C)c6)cncc5[nH]4)c3n2)c1` [Compound 432, N^1-(3-Fluoro-5-(2-(5-(5-(isopropylamino)pyridin-3-yl)-1H-pyrazolo[4,3-b]pyridin-3-yl)-3H-imidazo[4,5-c]pyridin-7-yl)phenyl)-N^2,N^2-dimethylethane-1,2-diamine] are 97% and 300 nM.
With `Cc1ccncc1-c1ccc2[nH]nc(-c3nc4c(-c5cc(F)cc(CNS(C)(=O)=O)c5)cncc4[nH]3)c2n1` [Compound 453, N-(3-Fluoro-5-(2-(5-(4-methylpyridin-3-yl)-1H-pyrazolo[4,3-b]pyridin-3-yl)-3H-imidazo[4,5-c]pyridin-7-yl)benzyl)methanesulfonamide], the Emax amounted to 35%.
Regarding `CN(C)CCOc1cncc(-c2ccc3[nH]nc(-c4nc5c(-c6cccc(F)c6)cncc5[nH]4)c3n2)c1` [Compound 487, 2-((5-(3-(7-(3-Fluorophenyl)-3H-imidazo[4,5-c]pyridin-2-yl)-1H-pyrazolo[4,3-b]pyridin-5-yl)pyridin-3-yl)oxy)-N,N-dimethylethan-1-amine], the Emax worked out at 55% and the EC50 was 2 nM.
The corresponding values for `COc1cncc(-c2ccc3[nH]nc(-c4nc5c(-c6cccc(F)c6)cncc5[nH]4)c3n2)c1` [Compound 488, 3-(7-(3-Fluorophenyl)-3H-imidazo[4,5-c]pyridin-2-yl)-5-(5-methoxylpyridin-3-yl)-1H-pyrazolo[4,3-b]pyridine] are 56% and 21 nM.
For `CC(C)CC(=O)Nc1cncc(-c2ccc3[nH]nc(-c4nc5c(-c6ccc(Cl)s6)cncc5[nH]4)c3n2)c1` [Compound 992, N-(5-(3-(7-(5-Chlorothiophen-2-yl)-3H-imidazo[4,5-c]pyridin-2-yl)-1H-pyrazolo[4,3-b]pyridin-5-yl)pyridin-3-yl)-3-methylbutanamide], the Emax is 61% and the EC50 came to 10 nM.
On the same counts, the results for `CC(C)(C)C(=O)Nc1cncc(-c2ccc3[nH]nc(-c4nc5c(-c6ccc(Cl)s6)cncc5[nH]4)c3n2)c1` [Compound 998, N-(5-(3-(7-(5-Chlorothiophen-2-yl)-3H-imidazo[4,5-c]pyridin-2-yl)-1H-pyrazolo[4,3-b]pyridin-5-yl)pyridin-3-yl)pivalamide] are 85% and 10 nM.
The corresponding values for `Clc1ccc(-c2cncc3[nH]c(-c4n[nH]c5ccc(-c6cncc(CN7CCCC7)c6)nc45)nc23)s1` [Compound 1004, 3-(7-(5-Chlorothiophen-2-yl)-3H-imidazo[4,5-c]pyridin-2-yl)-5-(5-(pyrrolidin-1-ylmethyl)pyridin-3-yl)-1H-pyrazolo[4,3-b]pyridine] are 62% and 10 nM.
On the same counts, the results for `O=C(Nc1cncc(-c2ccc3[nH]nc(-c4nc5c(-c6ccc(Cl)s6)cncc5[nH]4)c3n2)c1)C1CCC1` [Compound 1011, N-(5-(3-(7-(5-Chlorothiophen-2-yl)-3H-imidazo[4,5-c]pyridin-2-yl)-1H-pyrazolo[4,3-b]pyridin-5-yl)pyridin-3-yl)cyclobutanecarboxamide] are 68% and 30 nM.
